The target in the assay is T1, recombinant human GST-SYK (Homo sapiens, UniProt P43405).
T1 construct: purchased Carna Biosciences 08-176
Kind of assay: Homogeneous Time-Resolved Fluorescence (HTRF) assay for the recombinant human Syk enzyme. Format: biochemical. To be noted: recombinant human GST-SYK 5 pM, ATP 25 μM, read-out: rhSYK IC50. On the procedure: Homogeneous Time-Resolved Fluorescence (HTRF) Assay for the Recombinant Human Syk Enzyme
A recombinant GST-hSYK fusion protein was used to measure potency of compounds to inhibit human Syk activity. The recombinant human GST-SYK (Carna Biosciences #08-176) (5 pM final concentration) was incubated with various concentrations of the inhibitor diluted in DMSO (0.1% final concentration) for 10 minutes at room temperature in 15 mM Tris-HCl (pH 7.5), 0.01% tween 20, 2 mM DTT in 384 well plate format. To initiate the reaction the biotinylated substrate peptide (250 nM final concentration) that contains the phosphorylation site for Syk was added with magnesium (5 mM final concentration) and ATP (25 μM final concentration). Final volume of the reaction was 10 μL. Phosphorylation of the peptide was allowed to proceed for 45′ at room temperature. To quench the reaction and detect the phosphorylated product, 2 nM of a Europium-anti-phosphotyrosine antibody (Perkin Elmer #AD0161) and 70 nM SA-APC (Perkin-Elmer #CR130-100) were added together in 15 mM Tris pH 7.5, 40 mM EDTA, 0.01% tween 20. Final volume of the quenching solution was 10 μL.
The resulting HTRF signal was measured after 30 minutes on an EnVision (Perkin-Elmer) reader using a time-resolved fluorescence protocol. Table A below lists activities as IC50 values (nM) for representative compounds of the invention.
Turning to `Cc1cc(Nc2nccc(C(F)F)n2)cc(-c2cnc(C(C)(O)C3CCC(C(=O)O)CC3)s2)n1` (single isomer, unassigned) [Example 4.17, (trans)-4-((R or S)-{1-[5-(4-{[4-(difluoromethyl)pyrimidin-2-yl]amino}-6-methylpyridin-2-yl)-1,3-thiazol-2-yl]-1-hydroxyethyl}cyclo-hexanecarboxylic acid], the IC50 came out at 1.37 nM. The value for `Cc1cc(Nc2nccc(C(F)(F)F)n2)cc(-c2cnc(C(C)(O)[C@H]3CC[C@H](C(=O)O)CC3)s2)n1` (single isomer, unassigned) [Example 4.8, (trans)-4-((R or S)-1-hydroxy-1-[5-(6-methyl-4-{[4-(trifluoromethyl)pyrimidin-2-yl]amino}pyridin-2-yl)-1,3-thiazol-2-yl]ethyl}cyclohexane carboxylic acid] was 0.266 nM; that for `Cc1cc(Nc2cc(C(F)(F)F)ncn2)nc(-c2cnc(C3(O)CCC(C(=O)O)C(C)(C)C3)s2)c1` (single isomer, unassigned) [Example 1.6, (1S,4R or 1R,4S)-4-hydroxy-2,2-dimethyl-4-[5-(4-methyl-6-{[6-(trifluoromethyl)pyrimidin-4-yl]amino}pyridin-2-yl)-1,3-thiazol-2-yl] cyclohexane-carboxylic acid] was 0.441 nM; that for `COc1cc(Nc2cc(C)cc(-c3cnc([C@@]4(O)CC[C@H](C(N)=O)C(C)(C)C4)s3)n2)ncn1` (single isomer, unassigned) [Example 3.1, (1S,4R or 1R,4S)-4-Hydroxy-4-(5-{6-[(6-methoxypyrimidin-4-yl)amino]-4-methylpyridin-2-yl}-1,3-thiazol-2-yl)-2,2-dimethylcyclohexanecarboxamide] was 2.5 nM. With `Cc1cc(Nc2nccc(C(F)(F)F)n2)cc(-c2cnc(C(C)(O)c3ccc(C(=O)O)cc3)s2)n1` (single isomer, unassigned) [Example 1.20, (R or S)-4-(1-hydroxy-1-(5-(6-methyl-4-((4-(trifluoromethyl)pyrimidin-2-yl)amino)pyridin-2-yl)thiazol-2-yl)ethl)benzoic acid] the figure was 0.289 nM; with `OC1(c2ncc(-c3cncc(Nc4nccc(C(F)(F)F)n4)c3)s2)CCC1` [Example 2.3], 189 nM.

`Cc1cc(Nc2nccc(C)n2)cc(-c2cnc(C3(O)CCC(C(=O)O)C(C)(C)C3)s2)n1` (single isomer, unassigned) [Example 4.16, (1S,4R or 1R,4S)-4-hydroxy-2,2-dimethyl-4-(5-{6-methyl-4-[(4-methylpyrimidin-2-yl)amino]pyridin-2-yl}-1,3-thiazol-2-yl)cyclohexane-carboxylic acid]: the 50% inhibitory concentration (IC50) is 6.91 nM. The value for `Cc1cc(Nc2cc(C(F)(F)F)ncn2)nc(-c2cnc(C3(O)CCC(C(=O)O)C(C)(C)C3)s2)c1` (single isomer, unassigned) [Example 1.7, (1S,4R or 1R,4S)-4-hydroxy-2,2-dimethyl-4-[5-(4-methyl-6-{[6-(trifluoromethyl)pyrimidin-4-yl]amino}pyridin-2-yl)-1,3-thiazol-2-yl] cyclohexane-carboxylic acid] was 2.62 nM; that for `Cc1cnnc(Nc2cc(C)cc(-c3cnc([C@@]4(O)CC[C@H](C(=O)O)C(C)(C)C4)s3)n2)c1` (single isomer, unassigned) [Example 3.3, (1S,4R or 1R,4S)-4-hydroxy-2,2-dimethyl-4-(5-{4-methyl-6-[(5-methylpyridazin-3-yl)amino]pyridin-2-yl}-1,3-thiazol-2-yl)cyclohexanecarboxylic acid] was 182 nM; that for `Cc1cc(Nc2cc(C)ccn2)cc(-c2cnc(C(C)(O)C3CCC(C(=O)O)CC3)s2)c1` (single isomer, unassigned) [Example 4.15, (trans)-4-((R or S)-[1-hydroxy-1-(5-{3-methyl-5-[(4-methylpyridin-2-yl)amino]phenyl}-1,3-thiazol-2-yl)ethyl]cyclohexanecarboxylic acid] was 29.3 nM. The value for `CCCCOC(=O)[C@H]1CC[C@H](C(C)(O)c2ncc(-c3cc(Nc4nccc(C)n4)cc(C)n3)s2)CC1` (single isomer, unassigned) [Example 4.10, butyl (trans)-4-((R or S)-1-hydroxy-1-(5-{6-methyl-4-[(4-methylpyrimidin-2-yl)amino]pyridin-2-yl}-1,3-thiazol-2-yl)ethyl]cyclohexane carboxylate] was 94 nM; that for `Cc1cc(Nc2nccc(C(F)(F)F)n2)cc(-c2cnc(C3(O)CCc4cc(C(=O)O)ccc43)s2)n1` [Example 4.26, (1R, or 1S)-1-hydroxy-1-[5-(6-methyl-4-{[4-(trifluoromethyl)pyrimidin-2-yl]amino}pyridin-2-yl)-1,3-thiazol-2-yl]-2,3-dihydro-1H-indene-5-carboxylic acid] was 0.0959 nM; that for `COc1ncc(Nc2nccc(C(F)(F)F)n2)cc1-c1cnc([C@@]2(O)CC[C@H](C(=O)O)C(C)(C)C2)s1` (single isomer, unassigned) [Example 4.19, (1S,4R or 1R,4S)-4-hydroxy-4-[5-(2-methoxy-5-{[4-(trifluoromethyl)pyrimidin-2-yl]amino}pyridin-3-yl)-1,3-thiazol-2-yl]-2,2-dimethylcyclohexane carboxylic acid] was 4.13 nM. The value for `COc1cc(Nc2nccc(C(F)(F)F)n2)cc(-c2cnc(C3(O)CCC(C(=O)O)C(C)(C)C3)s2)n1` (single isomer, unassigned) [Example 4.18, (1S,4R or 1R,4S)-4-hydroxy-4-[5-(6-methoxy-4-{[4-(trifluoromethyl)pyrimidin-2-yl]amino}pyridin-2-yl)-1,3-thiazol-2-yl]-2,2-dimethylcyclohexane carboxylic acid] was 5.55 nM. As to `Cc1cc(Nc2nccc(OC(C)C)n2)cc(-c2cnc([C@@]3(O)CC[C@H](C(N)=O)C(C)(C)C3)s2)n1` (single isomer, unassigned) [Example 1.1, (1S,4R or 1R,4S)-4-hydroxy-4-(5-(4-((4-isopropoxypyrimidin-2-yl)amino)-6-methylpyridin-2-yl)thiazol-2-yl)-2,2-dimethylcyclohexanecarboxamide], the IC50 came to 1.1 nM. The value for `Cc1cc(Nc2nccc(C)n2)cc(-c2cnc([C@@]3(O)CC[C@H](C(=O)O)C(C)(C)C3)s2)n1` (single isomer, unassigned) [Example 4.3, (1S,4R or 1R, 4S)-4-hydroxy-2,2-dimethyl-4-(5-{6-methyl-4-[(4-methylpyrimidin-2-yl)amino]pyridin-2-yl}-1,3-thiazol-2-yl)cyclohexanecarboxylic acid] was 22.1 nM; that for `Cc1cc(Nc2cc(C(F)(F)F)ncn2)nc(-c2cnc([C@@]3(O)CC[C@H](C(=O)O)[C@H](C)C3)s2)c1` (single isomer, unassigned) [Example 1.3, rel-(1S,2R,4R or S)-4-hydroxy-2-methyl-4-[5-(4-methyl-6-{[6-(trifluoromethyl)pyrimidin-4-yl]amino}pyridin-2-yl)-1,3-thiazol-2-yl] cyclohexane-carboxylic acid] was 0.938 nM. The value for `CCCCOC(=O)[C@H]1CC[C@H](C(C)(O)c2ncc(-c3cc(Nc4nccc(OC)n4)cc(C)n3)s2)CC1` (single isomer, unassigned) [Example 4.7, butyl (trans)-4-((R or S)-1-hydroxy-1-(5-{4-[(4-methoxypyrimidin-2-yl)amino]-6-methylpyridin-2-yl}-1,3-thiazol-2-yl)ethyl]cyclohexane carboxylate] was 73.6 nM.

Take `Cc1cc(Nc2cc(C(F)(F)F)ncn2)nc(-c2cnc(C3(O)CCC(C(=O)O)C(C)(C)C3)s2)c1` (stereo not shown) [Example 1.2, 4-hydroxy-2,2-dimethyl-4-[5-(4-methyl-6-{[6-(trifluoromethyl)pyrimidin-4-yl]amino}pyridin-2-yl)-1,3-thiazol-2-yl]cyclohexane-carboxylic acid]: the IC50 was 1.17 nM.

Turning to `Cc1cc(Nc2cc(C)ncn2)nc(-c2cnc(C3(O)CCCc4cc(C(=O)O)ccc43)s2)c1` (single isomer, unassigned) [Example 2.9, (R or S)-5-hydroxy-5-(5-{4-methyl-6-[(6-methylpyrimidin-4-yl)amino]pyridin-2-yl}-1,3-thiazol-2-yl)-5,6,7,8-tetrahydronaphthalene-2-carboxlic acid], the IC50 was 0.212 nM. With `Cc1cc(Nc2nccc(OC(C)C)n2)cc(-c2cnc(C3(O)CCC(C(=O)O)C(C)(C)C3)s2)n1` (stereo not shown) [Example 1.16, 4-hydroxy-2,2-dimethyl-4-[5-(6-methyl-4-{[4-(1-methylethoxy)pyrimidin-2-yl]amino}pyridin-2-yl)-1,3-thiazol-2-yl] cyclohexane-carboxylic acid] the figure was 0.697 nM. With `Cc1cc(Nc2cnccn2)nc(-c2cnc([C@@]3(O)CC[C@H](C(=O)O)C(C)(C)C3)s2)c1` (single isomer, unassigned) [Example 3.8, (1S,4R or 1R,4S)-4-hydroxy-2,2-dimethyl-4-{5-[4-methyl-6-(pyrazin-2-ylamino)pyridin-2-yl]-1,3-thiazol-2-yl}cyclohexanecarboxylic acid] the figure was 0.608 nM.

Source of the values: patent US9745295B2, “Thiazole-substituted aminoheteroaryls as spleen tyrosine kinase inhibitors” (Merck Sharp & Dohme Corp., priority 2013, dated 2017).
